From publication PMC4076061 (Journal of cellular physiology, 2013) come the findings set out here.

What all share (format): cell-based
In experiment [1] the target is T1, cystic fibrosis transmembrane conductance regulator (CFTR) (Mus musculus, UniProt P26361). As to the kind of experiment: whole-cell patch clamp of native Cl- current in mouse sperm. The conditions noted are these: read-out: % inhibition of db-cAMP-stimulated current (at 5 μM).
Experiment [2] has as its target T1, cystic fibrosis transmembrane conductance regulator (CFTR).
For experiment [3] the target is unchanged. The experiment in a line: whole-cell patch clamp. As to conditions: read-out: % stimulation at 20 μM. Background: The patch-clamp technique gives a direct electrical read-out from membranes.

T1 sequence (P26361 whole entry): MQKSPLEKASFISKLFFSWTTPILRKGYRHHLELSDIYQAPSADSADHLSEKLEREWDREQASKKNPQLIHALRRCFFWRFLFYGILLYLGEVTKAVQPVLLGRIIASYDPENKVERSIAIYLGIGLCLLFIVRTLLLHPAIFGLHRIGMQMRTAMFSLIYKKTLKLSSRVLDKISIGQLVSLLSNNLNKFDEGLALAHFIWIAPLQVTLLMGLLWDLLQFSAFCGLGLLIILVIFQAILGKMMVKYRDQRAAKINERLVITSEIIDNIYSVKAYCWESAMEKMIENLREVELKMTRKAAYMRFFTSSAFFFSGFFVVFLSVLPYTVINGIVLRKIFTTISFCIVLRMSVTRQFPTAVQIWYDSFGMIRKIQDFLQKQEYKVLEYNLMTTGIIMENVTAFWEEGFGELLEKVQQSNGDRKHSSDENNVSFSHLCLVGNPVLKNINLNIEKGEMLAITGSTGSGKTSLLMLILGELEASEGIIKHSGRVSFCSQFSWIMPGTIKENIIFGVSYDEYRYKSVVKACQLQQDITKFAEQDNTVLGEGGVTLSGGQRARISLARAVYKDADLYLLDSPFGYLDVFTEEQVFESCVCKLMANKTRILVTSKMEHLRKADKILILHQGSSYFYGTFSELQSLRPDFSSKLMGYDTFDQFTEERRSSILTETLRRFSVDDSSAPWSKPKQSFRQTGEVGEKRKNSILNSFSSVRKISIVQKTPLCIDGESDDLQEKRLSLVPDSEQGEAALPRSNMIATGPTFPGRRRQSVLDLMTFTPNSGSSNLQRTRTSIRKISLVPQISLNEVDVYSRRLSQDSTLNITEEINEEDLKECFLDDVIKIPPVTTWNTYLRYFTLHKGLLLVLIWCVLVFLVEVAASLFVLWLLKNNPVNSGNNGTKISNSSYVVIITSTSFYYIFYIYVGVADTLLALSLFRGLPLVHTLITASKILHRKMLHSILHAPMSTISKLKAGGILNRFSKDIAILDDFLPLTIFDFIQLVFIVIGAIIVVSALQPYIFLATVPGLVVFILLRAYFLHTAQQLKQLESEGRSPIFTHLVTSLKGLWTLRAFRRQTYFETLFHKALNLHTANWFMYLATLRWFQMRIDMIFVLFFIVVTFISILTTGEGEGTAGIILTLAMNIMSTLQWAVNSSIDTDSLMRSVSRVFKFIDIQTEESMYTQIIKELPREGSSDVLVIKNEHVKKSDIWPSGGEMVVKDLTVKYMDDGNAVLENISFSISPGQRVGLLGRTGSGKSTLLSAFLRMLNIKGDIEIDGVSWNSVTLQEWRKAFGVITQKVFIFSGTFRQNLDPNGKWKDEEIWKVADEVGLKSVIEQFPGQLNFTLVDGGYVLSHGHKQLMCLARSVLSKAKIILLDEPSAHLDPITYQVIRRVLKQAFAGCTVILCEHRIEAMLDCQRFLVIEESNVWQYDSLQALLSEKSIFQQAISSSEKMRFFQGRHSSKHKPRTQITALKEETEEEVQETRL

For `O=C(O)c1ccc(/C=C2\SC(=S)N(c3cccc(C(F)(F)F)c3)C2=O)cc1` [CFTRinh-172, 3-[(3-trifluoromethyl)phenyl]-5-[(4 carboxyphenyl)methylene]-2-thioxo-4thiazolidinone], the inhibition at 5 µM in experiment [1] is 60%.

Molecule `O=C(O)c1ccccc1Nc1ccccc1` [DPC] yielded an IC50 in experiment [2] of about 175 µM.

With `O=c1c(-c2ccc(O)cc2)coc2cc(O)cc(O)c12` [genistein], the activation at 20 µM in experiment [3] is 54 ± 0.5%.

The term inhibition denotes the change of the read-out against control, counted positive when it falls. One may read the IC50 as the concentration that gives 50% inhibition. A low value points to greater potency.
